From US10463644B2, “Uses of sesquiterpene lactone compounds and their derivatives in drugs preparation” (ACCENDATECH, priority 2013, dated 2019)
Like-named read-outs stand apart in the source and are kept apart here.

Columns and labels:
[1] = system: IL-1β secreted by synoviocyte; test: Content of IL-1β in culture supernatant of synoviocyte of RA model rats given test compound; format: in vivo; conditions: rat RA model, dose 30 mg/kg.2d; normal control 0.16 ± 0.034, NaCl 0.49 ± 0.136
Outline: (§1)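 Read-out: TNF-α, PGE2 and IL-1β levels in supernatant from cultured synoviocytes. Cells came from RA model rats treated with compound at 30 mg/kg.2d, and from NaCl-treated and normal control rats.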

[2] = system: PGE2 secreted by synoviocyte; test: Content of PGE2 in culture supernatant of synoviocyte of RA model rats given test compound; format: in vivo; conditions: rat RA model, dose 30 mg/kg.2d; normal control 8.34 ± 1.29, NaCl 32.44 ± 10.32
Outline: as §1

[3] = system: cancer stem cells; test: Survival rate of cancer stem cells after test compound is added (flow cytometry, Annexin V-FITC/PI, clinical specimen); format: cell-based, patient; conditions: Homo sapiens, 18 h
Outline: (§2)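 Survival was determined in clinical specimens after an 18 h compound treatment, using Annexin V-FITC/PI apoptosis staining and flow cytometry.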

[4] = system: cancer cells; test: Survival rate of cancer cells after test compound is added (flow cytometry, Annexin V-FITC/PI, clinical specimen); format: cell-based, patient; conditions: Homo sapiens, 18 h, read-out: Survival rate (%) All cells (Stem cells and ordinary cells)
Outline: as §2

[5] = system: normal cells; test: Survival rate of normal cells after test compound is added (flow cytometry, Annexin V-FITC/PI); format: cell-based; conditions: 18 h
Outline: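 Patient specimens (e.g. AML, CD34+/CD38+ stem-cell marker) separated on Ficoll; mononuclear cells at 1×10^6/mL in serum-free IMDM treated 18 h with compound. Cells stained for stem-cell markers, then Annexin V-FITC/PI, and apoptosis measured by flow cytometry within one hour.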

[6] = Head and neck squamous cell carcinomas
[7] = read-out: Survival rate (%) All cells (Stem cells and ordinary cells)
[8] = read-out: Survival rate (%) Stem cells

C=C1C(=O)O[C@H]2[C@H]1CC[C@@](C)(OC)C1CC[C@@](C)(O)[C@@H]12 (stereo partly drawn) [Compound 47]
Content of IL-1β in culture supernatant of synoviocyte (x ± s) [1]: 0.34 ± 0.058 ng/mL
Content of PGE2 in culture supernatant of synoviocyte (x ± s) [2]: 27.95 ± 3.67 ng/mL
viability at 10 µM ([3]; AML): 79%
viability at 20 µM ([3]; AML): 73%
viability at 10 µM ([3]; Brain glioma): 85%
viability at 20 µM ([3]; Brain glioma): 79%
viability at 10 µM ([3]; Brain tumor): 81%
viability at 20 µM ([3]; Brain tumor): 75%
viability at 10 µM ([3]; Breast cancer): 82%
viability at 20 µM ([3]; Breast cancer): 73%
viability at 10 µM ([3]; CLL): 82%
viability at 20 µM ([3]; CLL): 73%
viability at 10 µM ([3]; CML): 85%
viability at 20 µM ([3]; CML): 77%
viability at 10 µM ([3]; Children hepatoblastoma): 85%
viability at 20 µM ([3]; Children hepatoblastoma): 79%
viability at 10 µM ([3]; Colon adenocarcinoma): 88%
viability at 20 µM ([3]; Colon adenocarcinoma): 81%
viability at 10 µM ([3]; Colorectal cancer): 79%
viability at 20 µM ([3]; Colorectal cancer): 72%
viability at 10 µM ([3]; Gastric cancer): 82%
viability at 20 µM ([3]; Gastric cancer): 76%
viability at 10 µM ([3]; Gastrointestinal tumor): 78%
viability at 20 µM ([3]; Gastrointestinal tumor): 74%
viability at 10 µM ([3]; Glioma): 87%
viability at 20 µM ([3]; Glioma): 76%
viability at 10 µM [3, 6]: 86%
viability at 20 µM [3, 6]: 78%
viability at 10 µM ([3]; Laryngeal cancer): 85%
viability at 20 µM ([3]; Laryngeal cancer): 79%
viability at 10 µM ([3]; Liver cancer): 82%
viability at 20 µM ([3]; Liver cancer): 73%
viability at 10 µM ([3]; Lung adenocarcinoma): 85%
viability at 20 µM ([3]; Lung adenocarcinoma): 77%
viability at 10 µM ([3]; Lung cancer): 85%
viability at 20 µM ([3]; Lung cancer): 79%
viability at 10 µM ([3]; Malignant melanoma): 82%
viability at 20 µM ([3]; Malignant melanoma): 76%
viability at 10 µM ([3]; Nasopharynx cancer): 82%
viability at 20 µM ([3]; Nasopharynx cancer): 74%
viability at 10 µM ([3]; Ovarian cancer): 84%
viability at 20 µM ([3]; Ovarian cancer): 78%
viability at 10 µM ([3]; Pancreatic cancer): 84%
viability at 20 µM ([3]; Pancreatic cancer): 78%
viability at 10 µM ([3]; Prostate cancer): 85%
viability at 20 µM ([3]; Prostate cancer): 77%
viability at 10 µM ([3]; Retinoblastoma): 81%
viability at 20 µM ([3]; Retinoblastoma): 75%
viability at 10 µM ([3]; Skin cancer): 84%
viability at 20 µM ([3]; Skin cancer): 78%
viability at 10 µM ([4]; AML): 88%
viability at 20 µM ([4]; AML): 82%
viability at 10 µM ([4]; Brain glioma): 93%
viability at 20 µM ([4]; Brain glioma): 86%
viability at 10 µM ([4]; Brain tumor): 87%
viability at 20 µM ([4]; Brain tumor): 83%
viability at 10 µM ([4]; Breast cancer): 91%
viability at 20 µM ([4]; Breast cancer): 87%
viability at 10 µM ([4]; CLL): 91%
viability at 20 µM ([4]; CLL): 87%
viability at 10 µM ([4]; CML): 92%
viability at 20 µM ([4]; CML): 89%
viability at 10 µM ([4]; Children hepatoblastoma): 88%
viability at 20 µM ([4]; Children hepatoblastoma): 85%
viability at 10 µM ([4]; Colon adenocarcinoma): 91%
viability at 20 µM ([4]; Colon adenocarcinoma): 89%
viability at 10 µM ([4]; Colorectal cancer): 88%
viability at 20 µM ([4]; Colorectal cancer): 81%
viability at 10 µM ([4]; Gastric cancer): 88%
viability at 20 µM ([4]; Gastric cancer): 89%
viability at 10 µM ([4]; Gastrointestinal tumor): 89%
viability at 20 µM ([4]; Gastrointestinal tumor): 81%
viability at 10 µM ([4]; Glioma): 94%
viability at 20 µM ([4]; Glioma): 87%
viability at 10 µM [4, 6]: 93%
viability at 20 µM [4, 6]: 92%
viability at 10 µM ([4]; Laryngeal cancer): 93%
viability at 20 µM ([4]; Laryngeal cancer): 86%
viability at 10 µM ([4]; Liver cancer): 91%
viability at 20 µM ([4]; Liver cancer): 87%
viability at 10 µM ([4]; Lung adenocarcinoma): 92%
viability at 20 µM ([4]; Lung adenocarcinoma): 89%
viability at 10 µM ([4]; Lung cancer): 93%
viability at 20 µM ([4]; Lung cancer): 86%
viability at 10 µM ([4]; Malignant melanoma): 89%
viability at 20 µM ([4]; Malignant melanoma): 86%
viability at 10 µM ([4]; Nasopharynx cancer): 88%
viability at 20 µM ([4]; Nasopharynx cancer): 85%
viability at 10 µM ([4]; Ovarian cancer): 91%
viability at 20 µM ([4]; Ovarian cancer): 88%
viability at 10 µM ([4]; Pancreatic cancer): 91%
viability at 20 µM ([4]; Pancreatic cancer): 88%
viability at 10 µM ([4]; Prostate cancer): 92%
viability at 20 µM ([4]; Prostate cancer): 89%
viability at 10 µM ([4]; Retinoblastoma): 87%
viability at 20 µM ([4]; Retinoblastoma): 83%
viability at 10 µM ([4]; Skin cancer): 91%
viability at 20 µM ([4]; Skin cancer): 88%
viability at 10 µM [5, 7]: 95%
viability at 10 µM [5, 8]: 93%
viability at 20 µM [5, 7]: 94%
viability at 20 µM [5, 8]: 92%
